Source: ChEMBL document CHEMBL3352180, “From chemical tools to clinical medicines: nonimmunosuppressive cyclophilin inhibitors derived from the cyclosporin and sanglifehrin scaffolds” (J Med Chem, 2014)
Blank lines part the entries; values can stand above or below the compound they belong to.

How the values were obtained:
[1] = tested on: Hepatitis C virus; assay: Antiviral activity against HCV assessed as inhibition of viral replication at 1 uM by replicon based assay; format: functional, Hepacivirus hominis
[2] = tested on: Lymphocyte; assay: cells
Description: Immunosuppressive activity in lymphocytes (unknown origin) by mixed lymphocyte reaction assay

[3] = tested on: Hepatitis C virus; assay: microbe, parasite or virus in culture
Description: Antiviral activity against HCV by replicon based assay

[4] = molecular target: Peptidyl-prolyl cis-trans isomerase F, mitochondrial (Homo sapiens, UniProt P30405)
Description: Binding affinity to cyclophilin D (unknown origin)

[5] = molecular target: Peptidyl-prolyl cis-trans isomerase A (Homo sapiens, UniProt P62937)
Description: Binding affinity to cyclophilin A (unknown origin)

[6] = species on record: Homo sapiens; assay: Inhibition of Pgp (unknown origin) assessed as reduction in pump efflux activity

Sequence of Peptidyl-prolyl cis-trans isomerase A (P62937 whole entry): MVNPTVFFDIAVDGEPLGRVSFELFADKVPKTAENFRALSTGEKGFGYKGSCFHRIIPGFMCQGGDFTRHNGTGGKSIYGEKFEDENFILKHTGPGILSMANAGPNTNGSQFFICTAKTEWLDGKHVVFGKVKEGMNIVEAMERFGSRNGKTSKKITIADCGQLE
Sequence of Peptidyl-prolyl cis-trans isomerase F, mitochondrial (P30405 whole entry): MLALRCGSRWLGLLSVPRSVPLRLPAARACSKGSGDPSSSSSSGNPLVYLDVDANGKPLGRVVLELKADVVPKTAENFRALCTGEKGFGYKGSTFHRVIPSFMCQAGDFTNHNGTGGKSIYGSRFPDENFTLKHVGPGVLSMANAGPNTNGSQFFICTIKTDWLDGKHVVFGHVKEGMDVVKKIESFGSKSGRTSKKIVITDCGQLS

Structure (SMILES): CC(C)[C@@H]1OC(=O)[C@]2(/C=C/c3ccc4ccc(nc4c3)[C@@H](C)OC(=O)[C@@H]3CCCN(N3)C(=O)[C@H](C)NC1=O)CC[C@H](O)CC2
inhibition at 1 µM [1]: 99%

Structure (SMILES): CC(C)[C@@H]1NC(=O)C([C@H](C)O)/C=C/c2ccc3ccc(nc3c2)[C@@H](C)OC(=O)[C@@H]2CCCN(N2)C(=O)[C@H](C)NC1=O (some centres not stated)
inhibition at 1 µM [1]: 99%

The remaining lines, values ahead:

EC50 [2]: 3 µM
Structure (SMILES): C/C=C/C[C@@H](C)[C@@H](O)[C@H]1C(=O)N[C@@H](CC)C(=O)N(C)[C@@H](SCCCN2CCOCC2)C(=O)N(C)[C@@H](CC(C)C)C(=O)N[C@@H](C(C)C)C(=O)N(C)[C@@H](CC(C)C)C(=O)N[C@@H](C)C(=O)N[C@H](C)C(=O)N(C)[C@@H](CC(C)C)C(=O)N(C)[C@@H](CC(C)C)C(=O)N(C)[C@@H](C(C)C)C(=O)N1C

EC50 [3]: < 0.2 µM | Kd [4]: < 0.06 µM | Kd [5]: < 0.06 µM
Structure (SMILES): C/C=C/C[C@@H](C)[C@@H](O)[C@H]1C(=O)N[C@@H](CC)C(=O)N(C)[C@@H](C)C(=O)N(C)[C@@H](CC(C)C)C(=O)N(CC=C(C)C)[C@@H](C(C)C)C(=O)N(C)[C@@H](CC(C)C)C(=O)N[C@@H](C)C(=O)N[C@H](C)C(=O)N(C)[C@@H](CC(C)C)C(=O)N(C)[C@@H](CC(C)C)C(=O)N(C)[C@@H](C(C)C)C(=O)N1C

INH [6]: 15 µM
Structure (SMILES): C/C=C/C[C@@H](C)[C@@H](O)[C@H]1C(=O)N[C@@H](CC)C(=O)N(C)[C@H](SCCN(C)C)C(=O)N(C)[C@@H](CC(C)(C)O)C(=O)N[C@@H](C(C)C)C(=O)N(C)[C@@H](CC(C)C)C(=O)N[C@@H](C)C(=O)N[C@H](C)C(=O)N(C)[C@@H](CC(C)C)C(=O)N(C)[C@@H](CC(C)C)C(=O)N(C)[C@@H](C(C)C)C(=O)N1C
